Here are results for one compound from patent US11278589B2, “Use of a cyclic tripeptide for improving cellular energy metabolism” (ASSISTANCE PUBLIQUE—HOPITAUX DE PARIS, priority 2015, dated 2022).

This data set relates to Human oocytes. Description: Randomized prospective study in human IVF (fertilin study). The note with it: first step, 56 couples. It is filed as in vivo. An excerpt: A clinical trial was begun in the IVF laboratory of the MAP Center of Cochin, on Sep. 8, 2014, on 66 couples, the average age being 34.3±4.2 years old for the women and 37.0±5.2 for their partners. It is a randomized, single-center prospective study of in vitro fertilization (IVF) carried out in the presence or absence of FEEc. The oocytes, recovered from their cumulus, were divided up into two groups alternately into one and then into the other according to their order of recovery. When all the oocytes were recovered, a technician who had not participated in the recovery of the cumuli determined by randomization which of the two groups was inseminated in the presence of FEEc and which served as control. One part of the oocytes is incubated in the standard culture medium (Global, JCD), the other part in this same medium supplemented with 100 μM FEEc.
The methodology of this study, represented diagrammatically in FIG. 9, is presented below. Human oocytes originating from women 18 to 43 years old were recovered by ovarian puncture after hormonal stimulation by gynecologists. They were divided up in a randomized manner into 2 groups: the oocytes incubated in the presence of a standard culture medium supplemented with 100 μM FEEc or of a standard culture medium (Global, JCD), then placed in an incubator at 37° C. under an atmosphere of 5% of CO2. […]

Positions of bridges follow the written chain, without caps; N, C: chain ends. Residues, ends and D or L forms follow the SMILES beside them.

`N[C@H]1CSSC[C@@H](C(=O)O)NC(=O)[C@H](CCC(=O)O)NC(=O)[C@H](CCC(=O)O)NC(=O)[C@H](Cc2ccccc2)NC(=O)[C@H](CO)NC1=O` [FEEc, C-S-F-E-E-C] (H-CSFEEC-OH; disulfide 1-6): the adverse effect result is given as “No adverse effect has been reported to date”.
